Assay results taken from ChEMBL document CHEMBL4665775, “Half-life extension of peptidic APJ agonists by N-terminal lipid conjugation” (Bioorg Med Chem Lett, 2020).

Legend:
[1] = target: T1, Apelin receptor (Rattus norvegicus, UniProt Q9JHG3); assay: Agonist activity at rat APJ receptor stably expressed in CHO cell membranes in presence of [35S]GTPgammaS by scintillation proximity assay; assay type: functional
T1 sequence (Q9JHG3 whole entry): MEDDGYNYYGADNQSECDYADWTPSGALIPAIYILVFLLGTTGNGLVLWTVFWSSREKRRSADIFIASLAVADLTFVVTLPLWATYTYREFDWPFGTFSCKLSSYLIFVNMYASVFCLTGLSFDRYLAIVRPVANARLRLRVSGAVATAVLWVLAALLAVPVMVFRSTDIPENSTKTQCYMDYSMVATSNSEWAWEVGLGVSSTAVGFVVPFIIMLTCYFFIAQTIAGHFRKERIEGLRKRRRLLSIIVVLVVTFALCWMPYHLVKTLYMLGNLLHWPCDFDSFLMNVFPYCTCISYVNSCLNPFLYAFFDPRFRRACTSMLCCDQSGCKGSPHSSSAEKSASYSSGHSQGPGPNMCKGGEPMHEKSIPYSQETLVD

[2] = Plasma protein binding in rat assessed as unbound fraction by LC-MS/MS analysis; assay type: ADME, cell-free
[3] = Stability in rat plasma assessed as compound remaining at 4 hrs; assay type: ADME, cell-free; details: read-out: Stabilty
[4] = Stability in rat Kidney S9 fraction assessed as compound remaining at 4 hrs; assay type: ADME, subcellular; details: read-out: Stabilty

| EC50 [1] | fraction unbound [2] | remaining at 4 h [3] | remaining at 4 h [4] | SMILES |
| --- | --- | --- | --- | --- |
| 1.35 nM | – | – | – | CCCCCCCCCC(=O)N[C@@H](CCC(=O)NCCOCCOCC(=O)NCCOCCOCC(=O)N[C@@H](CCCCNC(=N)N)C(=O)N[C@H](CCCNC(=N)N)C(=O)N[C@@H](CCC(N)=O)C(=O)N[C@@H](CCCCNC(=N)N)C(=O)N1CCC[C@H]1C(=O)N[C@H](CCCNC(=N)N)C(=O)N(C)[C@@H](CC(C)C)C(=O)N[C@@H](CO)C(=O)N[C@@H](Cc1c[nH]cn1)C(=O)N[C@@H](CCCCN)C(=O)NCC(=O)N1[C@H](C(=O)N[C@@H](Cc2ccc(I)cc2)C(=O)N2CCC[C@H]2C(=O)N[C@H](Cc2ccc(-c3ccccc3)cc2)C(=O)O)C[C@@H]2CCCC[C@@H]21)C(=O)O |
| 2.61 nM | – | – | – | CC(C)C[C@@H](C(=O)N[C@@H](CO)C(=O)N[C@@H](Cc1c[nH]cn1)C(=O)N[C@@H](CCCCN)C(=O)NCC(=O)N1[C@H](C(=O)N[C@@H](Cc2ccc(I)cc2)C(=O)N2CCC[C@H]2C(=O)N[C@H](Cc2ccc(-c3ccccc3)cc2)C(=O)O)C[C@@H]2CCCC[C@@H]21)N(C)C(=O)[C@@H](CCCNC(=N)N)NC(=O)[C@@H]1CCCN1C(=O)[C@H](CCCCNC(=N)N)NC(=O)[C@H](CCC(N)=O)NC(=O)[C@@H](CCCNC(=N)N)NC(=O)[C@H](CCCCNC(=N)N)NC(=O)COCCOCCNC(=O)COCCOCCNC(=O)CC[C@H](NC(=O)CCCCCCC(=O)O)C(=O)O |
| 56.1 nM | – | – | – | CC(C)C[C@@H](C(=O)N[C@@H](CO)C(=O)N[C@@H](Cc1c[nH]cn1)C(=O)N[C@@H](CCCCN)C(=O)NCC(=O)N1[C@H](C(=O)N[C@@H](Cc2ccc(I)cc2)C(=O)N2CCC[C@H]2C(=O)N[C@H](Cc2ccc(-c3ccccc3)cc2)C(=O)O)C[C@@H]2CCCC[C@@H]21)N(C)C(=O)[C@@H](CCCNC(=N)N)NC(=O)[C@@H]1CCCN1C(=O)[C@H](CCCCNC(=N)N)NC(=O)[C@H](CCC(N)=O)NC(=O)[C@@H](CCCNC(=N)N)NC(=O)[C@H](CCCCNC(=N)N)NC(=O)COCCOCCNC(=O)COCCOCCNC(=O)CC[C@H](NC(=O)CCCCCCCCCCCCCCC(=O)O)C(=O)O |
| 4.01 nM | 0.0189 | – | – | CCCCCCCCCCCCCCCC(=O)N[C@@H](CCC(=O)NCCOCCOCC(=O)NCCOCCOCC(=O)N[C@@H](CCCCNC(=N)N)C(=O)N[C@H](CCCNC(=N)N)C(=O)N[C@@H](CCC(N)=O)C(=O)N[C@@H](CCCCNC(=N)N)C(=O)N1CCC[C@H]1C(=O)N[C@H](CCCNC(=N)N)C(=O)N(C)[C@@H](CC(C)C)C(=O)N[C@@H](CO)C(=O)N[C@@H](Cc1c[nH]cn1)C(=O)N[C@@H](CCCCN)C(=O)NCC(=O)N1[C@H](C(=O)N[C@@H](Cc2ccc(I)cc2)C(=O)N2CCC[C@H]2C(=O)N[C@H](Cc2ccc(-c3ccccc3)cc2)C(=O)O)C[C@@H]2CCCC[C@@H]21)C(=O)O |
| 2.89 nM | – | – | – | CC(C)C[C@@H](C(=O)N[C@@H](CO)C(=O)N[C@@H](Cc1c[nH]cn1)C(=O)N[C@@H](CCCCN)C(=O)NCC(=O)N1[C@H](C(=O)N[C@@H](Cc2ccc(I)cc2)C(=O)N2CCC[C@H]2C(=O)N[C@H](Cc2ccc(-c3ccccc3)cc2)C(=O)O)C[C@@H]2CCCC[C@@H]21)N(C)C(=O)[C@@H](CCCNC(=N)N)NC(=O)[C@@H]1CCCN1C(=O)[C@H](CCCCNC(=N)N)NC(=O)[C@H](CCC(N)=O)NC(=O)[C@@H](CCCNC(=N)N)NC(=O)[C@H](CCCCNC(=N)N)NC(=O)COCCOCCNC(=O)COCCOCCNC(=O)CC[C@H](NC(=O)CCCCCCCCC(=O)O)C(=O)O |
| 3.05 nM | 0.0027 | – | – | CCCCCCCC(=O)N[C@@H](CCC(=O)NCCOCCOCC(=O)NCCOCCOCC(=O)N[C@@H](CCCCNC(=N)N)C(=O)N[C@H](CCCNC(=N)N)C(=O)N[C@@H](CCC(N)=O)C(=O)N[C@@H](CCCCNC(=N)N)C(=O)N1CCC[C@H]1C(=O)N[C@H](CCCNC(=N)N)C(=O)N(C)[C@@H](CC(C)C)C(=O)N[C@@H](CO)C(=O)N[C@@H](Cc1c[nH]cn1)C(=O)N[C@@H](CCCCN)C(=O)NCC(=O)N1[C@H](C(=O)N[C@@H](Cc2ccc(I)cc2)C(=O)N2CCC[C@H]2C(=O)N[C@H](Cc2ccc(-c3ccccc3)cc2)C(=O)O)C[C@@H]2CCCC[C@@H]21)C(=O)O |
| 17.8 nM | – | – | – | CC(C)C[C@@H](C(=O)N[C@@H](CO)C(=O)N[C@@H](Cc1c[nH]cn1)C(=O)N[C@@H](CCCCN)C(=O)NCC(=O)N1[C@H](C(=O)N[C@@H](Cc2ccc(I)cc2)C(=O)N2CCC[C@H]2C(=O)N[C@H](Cc2ccc(-c3ccccc3)cc2)C(=O)O)C[C@@H]2CCCC[C@@H]21)N(C)C(=O)[C@@H](CCCNC(=N)N)NC(=O)[C@@H]1CCCN1C(=O)[C@H](CCCCNC(=N)N)NC(=O)[C@H](CCC(N)=O)NC(=O)[C@@H](CCCNC(=N)N)NC(=O)[C@H](CCCCNC(=N)N)NC(=O)COCCOCCNC(=O)COCCOCCNC(=O)CC[C@H](NC(=O)CCCCCCCCCCCCC(=O)O)C(=O)O |
| 3.56 nM | 0.0013 | – | – | CCCCCCCCCCCC(=O)N[C@@H](CCC(=O)NCCOCCOCC(=O)NCCOCCOCC(=O)N[C@@H](CCCCNC(=N)N)C(=O)N[C@H](CCCNC(=N)N)C(=O)N[C@@H](CCC(N)=O)C(=O)N[C@@H](CCCCNC(=N)N)C(=O)N1CCC[C@H]1C(=O)N[C@H](CCCNC(=N)N)C(=O)N(C)[C@@H](CC(C)C)C(=O)N[C@@H](CO)C(=O)N[C@@H](Cc1c[nH]cn1)C(=O)N[C@@H](CCCCN)C(=O)NCC(=O)N1[C@H](C(=O)N[C@@H](Cc2ccc(I)cc2)C(=O)N2CCC[C@H]2C(=O)N[C@H](Cc2ccc(-c3ccccc3)cc2)C(=O)O)C[C@@H]2CCCC[C@@H]21)C(=O)O |
| 3.78 nM | – | – | – | CCCCCCCCCCCCCCCCCC(=O)N[C@@H](CCC(=O)NCCOCCOCC(=O)NCCOCCOCC(=O)N[C@@H](CCCCNC(=N)N)C(=O)N[C@H](CCCNC(=N)N)C(=O)N[C@@H](CCC(N)=O)C(=O)N[C@@H](CCCCNC(=N)N)C(=O)N1CCC[C@H]1C(=O)N[C@H](CCCNC(=N)N)C(=O)N(C)[C@@H](CC(C)C)C(=O)N[C@@H](CO)C(=O)N[C@@H](Cc1c[nH]cn1)C(=O)N[C@@H](CCCCN)C(=O)NCC(=O)N1[C@H](C(=O)N[C@@H](Cc2ccc(I)cc2)C(=O)N2CCC[C@H]2C(=O)N[C@H](Cc2ccc(-c3ccccc3)cc2)C(=O)O)C[C@@H]2CCCC[C@@H]21)C(=O)O |
| 0.92 nM | 0.001 | > 90% | 30% | CC(=O)N[C@@H](CCC(=O)NCCOCCOCC(=O)NCCOCCOCC(=O)N[C@@H](CCCCNC(=N)N)C(=O)N[C@H](CCCNC(=N)N)C(=O)N[C@@H](CCC(N)=O)C(=O)N[C@@H](CCCCNC(=N)N)C(=O)N1CCC[C@H]1C(=O)N[C@H](CCCNC(=N)N)C(=O)N(C)[C@@H](CC(C)C)C(=O)N[C@@H](CO)C(=O)N[C@@H](Cc1c[nH]cn1)C(=O)N[C@@H](CCCCN)C(=O)NCC(=O)N1[C@H](C(=O)N[C@@H](Cc2ccc(I)cc2)C(=O)N2CCC[C@H]2C(=O)N[C@H](Cc2ccc(-c3ccccc3)cc2)C(=O)O)C[C@@H]2CCCC[C@@H]21)C(=O)O |
| 0.24 nM | – | – | – | CCCC(=O)N[C@@H](CCC(=O)NCCOCCOCC(=O)NCCOCCOCC(=O)N[C@@H](CCCCNC(=N)N)C(=O)N[C@H](CCCNC(=N)N)C(=O)N[C@@H](CCC(N)=O)C(=O)N[C@@H](CCCCNC(=N)N)C(=O)N1CCC[C@H]1C(=O)N[C@H](CCCNC(=N)N)C(=O)N(C)[C@@H](CC(C)C)C(=O)N[C@@H](CO)C(=O)N[C@@H](Cc1c[nH]cn1)C(=O)N[C@@H](CCCCN)C(=O)NCC(=O)N1[C@H](C(=O)N[C@@H](Cc2ccc(I)cc2)C(=O)N2CCC[C@H]2C(=O)N[C@H](Cc2ccc(-c3ccccc3)cc2)C(=O)O)C[C@@H]2CCCC[C@@H]21)C(=O)O |
| 3.63 nM | 0.0023 | – | – | CCCCCCCCCCCCCC(=O)N[C@@H](CCC(=O)NCCOCCOCC(=O)NCCOCCOCC(=O)N[C@@H](CCCCNC(=N)N)C(=O)N[C@H](CCCNC(=N)N)C(=O)N[C@@H](CCC(N)=O)C(=O)N[C@@H](CCCCNC(=N)N)C(=O)N1CCC[C@H]1C(=O)N[C@H](CCCNC(=N)N)C(=O)N(C)[C@@H](CC(C)C)C(=O)N[C@@H](CO)C(=O)N[C@@H](Cc1c[nH]cn1)C(=O)N[C@@H](CCCCN)C(=O)NCC(=O)N1[C@H](C(=O)N[C@@H](Cc2ccc(I)cc2)C(=O)N2CCC[C@H]2C(=O)N[C@H](Cc2ccc(-c3ccccc3)cc2)C(=O)O)C[C@@H]2CCCC[C@@H]21)C(=O)O |
| 9.34 nM | – | – | – | CC(C)C[C@@H](C(=O)N[C@@H](CO)C(=O)N[C@@H](Cc1c[nH]cn1)C(=O)N[C@@H](CCCCN)C(=O)NCC(=O)N1[C@H](C(=O)N[C@@H](Cc2ccc(I)cc2)C(=O)N2CCC[C@H]2C(=O)N[C@H](Cc2ccc(-c3ccccc3)cc2)C(=O)O)C[C@@H]2CCCC[C@@H]21)N(C)C(=O)[C@@H](CCCNC(=N)N)NC(=O)[C@@H]1CCCN1C(=O)[C@H](CCCCNC(=N)N)NC(=O)[C@H](CCC(N)=O)NC(=O)[C@@H](CCCNC(=N)N)NC(=O)[C@H](CCCCNC(=N)N)NC(=O)COCCOCCNC(=O)COCCOCCNC(=O)CC[C@H](NC(=O)CCCCCCCCCCC(=O)O)C(=O)O |
| 0.49 nM | – | – | – | CC(C)C[C@@H](C(=O)N[C@@H](CO)C(=O)N[C@@H](Cc1c[nH]cn1)C(=O)N[C@@H](CCCCN)C(=O)NCC(=O)N1[C@H](C(=O)N[C@@H](Cc2ccc(I)cc2)C(=O)N2CCC[C@H]2C(=O)N[C@H](Cc2ccc(-c3ccccc3)cc2)C(=O)O)C[C@@H]2CCCC[C@@H]21)N(C)C(=O)[C@@H](CCCNC(=N)N)NC(=O)[C@@H]1CCCN1C(=O)[C@H](CCCCNC(=N)N)NC(=O)[C@H](CCC(N)=O)NC(=O)[C@@H](CCCNC(=N)N)NC(=O)[C@H](CCCCNC(=N)N)NC(=O)COCCOCCNC(=O)COCCOCCNC(=O)CC[C@H](NC(=O)CCC(=O)O)C(=O)O |
